The text below walks through data of ChEMBL document CHEMBL1155656, “Thirteen novel cycloartane-type triterpenes from Combretum quadrangulare” (2000).

Converted amounts (≈) assume the structure as drawn.

This test is described as follows: Cytotoxicity against mouse 26-L5 cells. Conditions: read-out: ED50 (the source's name). The class given is functional.
Consider `C=C(C)[C@H](O)CC[C@@H](C(=O)O)[C@H]1CC[C@@]2(C)[C@@H]3CC[C@H]4[C@](C)(C(=O)OC)[C@@H](O)C[C@H](O)[C@@]45C[C@@]35CC[C@]12C`, for which the EC50 was above 100 µg/mL.

On to `C=C(CC[C@@H](C)[C@H]1CC[C@@]2(C)[C@@H]3[C@@H](O)C[C@H]4[C@](C)(C(=O)O)[C@@H](O)C[C@H](O)[C@@]45C[C@@]35CC[C@]12C)C(C)C`, for which the EC50 turned out to be 37.3 µg/mL (≈ 74.2 µM).

Regarding `C[C@H](CC[C@H](O)C(C)(C)O)[C@H]1CC[C@@]2(C)[C@@H]3CC[C@H]4[C@](C)(C(=O)O)[C@@H](O)C[C@H](O)[C@@]45C[C@@]35CC[C@]12C`, the EC50 was above 100 µg/mL.

Turning to `C=C(C)[C@@H](O)CC[C@@H](CO)[C@H]1CC[C@@]2(C)[C@@H]3CC[C@H]4[C@](C)(C(=O)OC)[C@@H](O)C[C@H](O)[C@@]45C[C@@]35CC[C@]12C` [METHYL QUADRANGULARATE], the EC50 turned out to be 29.4 µg/mL (≈ 56.7 µM).

As to `C[C@H](CCC(=O)O)[C@H]1CC[C@@]2(C)[C@@H]3CC[C@H]4[C@](C)(C(=O)O)[C@@H](O)C[C@H](O)[C@@]45C[C@@]35CC[C@]12C` [NORQUADRANGULARIC ACID A], the EC50 is above 100 µg/mL.

For the compound `COC(=O)[C@]1(C)[C@@H](O)C[C@H](O)[C@]23C[C@]24CC[C@]2(C)[C@@H]([C@@H](C/C=C/C(C)(C)OO)C(=O)O)CC[C@@]2(C)[C@@H]4CC[C@@H]13` [QUADRANGULARIC ACID F], the EC50 was above 100 µg/mL.

Take `C=C(C)[C@@H](O)CC[C@@H](C(=O)O)[C@H]1CC[C@@]2(C)[C@@H]3CC[C@H]4[C@](C)(C(=O)OC)[C@@H](O)C[C@H](O)[C@@]45C[C@@]35CC[C@]12C` [QUADRANGULARIC ACID G]: the EC50 was above 100 µg/mL.

For `C=C(C)C(=O)CC[C@@H](C(=O)O)[C@H]1CC[C@@]2(C)[C@@H]3CC[C@H]4[C@](C)(C(=O)O)[C@@H](O)C[C@H](O)[C@@]45C[C@@]35CC[C@]12C` [QUADRANGULARIC ACID H], the EC50 was above 100 µg/mL.

On to `COC(C)(C)/C=C/C[C@@H](C)[C@H]1CC[C@@]2(C)[C@@H]3CC[C@H]4[C@](C)(C(=O)O)[C@@H](O)C[C@H](O)[C@@]45C[C@@]35CC[C@]12C` [QUADRANGULARIC ACID J], for which the EC50 is 86.1 µg/mL (≈ 171 µM).

As for `C[C@H](C/C=C\C(C)(C)O)[C@H]1CC[C@@]2(C)[C@@H]3CC[C@H]4[C@](C)(C(=O)O)[C@@H](O)C[C@H](O)[C@@]45C[C@@]35CC[C@]12C` [QUADRANGULARIC ACID K], the EC50 stood at 82.6 µg/mL (≈ 169 µM).

For the compound `C[C@H](CC[C@@H](O)C(C)(C)O)[C@H]1CC[C@@]2(C)[C@@H]3CC[C@H]4[C@](C)(C(=O)O)[C@@H](O)C[C@H](O)[C@@]45C[C@@]35CC[C@]12C` [QUADRANGULARIC ACID L], the EC50 was above 100 µg/mL.
